Assay results published in patent US20230067811A1, “MODULATING LYMPHATIC VESSELS IN NEUROLOGICAL DISEASE” (University of Virginia Patent Foundation, priority 2020, published 2023).

Test system: microglia
Assay: Single-cell RNA-seq of brain cortical myeloid cells after meningeal lymphatic ablation
Format: in vivo, mouse
Settings: 5×FAD mice, Vis. versus Vis./photo. groups
Experimental: Transcriptome of sorted live CD45^+Ly6G^negCD11b^+ cells pooled from 3 mice per group was analyzed by single-cell RNA-seq (scRNA-seq).
J Neurosci 28, 14156-14164, (2008)). Thus, it was hypothesized that altered microglial function in mice with impaired meningeal lymphatics was contributing to decreased clearance of Aβ by anti-Abeta antibody. Single-cell RNA-seq was performed on live myeloid CD45^+Ly6G^negCD11b^+ cells sorted from the brain cortices of 5×FAD mice with intact or ablated meningeal lymphatics (FIG. 13A). After in-silico removal of undesired cell contaminants, shared nearest neighbor clustering and t-distributed stochastic neighbor embedding, four clusters of microglia were identified (FIG. 13B). […] Cell 169, 1276-1290 e1217, (2017); Krasemann, S. et al. The TREM2-APOE Pathway Drives the Transcriptional Phenotype of Dysfunctional Microglia in Neurodegenerative Diseases. Immunity 47, 566-581 e569, (2017)). Concomitantly, it was observed that there was a significant increase in cortical CD45^high cells (recruited leukocytes and/or activated microglia, FIGS. 13M-13Q) and in the levels of […] (encoded by the H2-D1 gene) in both CD45^intCD11b^+ (microglia) and CD45high CD11b^neg (recruited lymphoid cells) cells in mice with meningeal lymphatic dysfunction (FIGS. 13R-13U). […]

## verteporfin [Visudyne]
  frequency of microglia (% of total cells) from each cluster: similar
